Drawing on the OligoGym collection, this text covers 3 h FOB score for 26 substances.

HELM strings list units from the 5' end as sugar, base in round brackets, then linkage (d deoxyribose, r ribose, m 2'-O-methyl, p phosphodiester). Strings are as the collection lists them; they lack the last nucleoside at the 3' end of the tested compound. [moe] = 2'-O-(2-methoxyethyl) (MOE); [sp] = phosphorothioate linkage; [m5C] = 5-methylcytosine

The target of this data set is UBE3A-ATS. Nature of the data set: mouse, dose not given. The note with it: ASO.

With “RNA1{[moe](G)[sp].[moe](T)p.[moe](G)p.[moe]([m5C])p.d(A)[sp].d(T)[sp].d(A)[sp].d([m5C])[sp].d([m5C])[sp].d([m5C])[sp].d(A)[sp].d(G)[sp].d(G)[sp].d(G)[sp].[moe](T)p.[moe](A)p.[moe](G)p.[moe](G)[sp].[moe](A)}$$$$ (last 3' nucleoside missing)”, the 3 h FOB score was found to be 2 score 0-7. “RNA1{[moe](A)[sp].[moe](G)p.[moe](G)p.[moe](A)p.[moe](T)p.d(T)[sp].d([m5C])[sp].d(A)[sp].d(A)[sp].d(T)[sp].d(A)[sp].d(G)[sp].d(T)[sp].d(G)[sp].d(T)[sp].[moe](A)p.[moe](G)p.[moe](G)[sp].[moe](T)}$$$$ (last 3' nucleoside missing)” gave a 3 h FOB score of 6.7 score 0-7. For the substance “RNA1{[moe](G)[sp].[moe](G)p.[moe](A)p.[moe]([m5C])p.[moe](T)p.d(T)[sp].d(G)[sp].d(T)[sp].d([m5C])[sp].d(T)[sp].d(T)[sp].d(A)[sp].d(T)[sp].d(G)[sp].d(G)[sp].[moe]([m5C])p.[moe](T)p.[moe](G)[sp].[moe]([m5C])}$$$$ (last 3' nucleoside missing)”, the 3 h FOB score was found to be 1 score 0-7. “RNA1{[moe](A)[sp].[moe](G)p.[moe]([m5C])p.[moe]([m5C])p.[moe](A)[sp].d(G)[sp].d(G)[sp].d(T)[sp].d(G)[sp].d(T)[sp].d([m5C])[sp].d(T)[sp].d(T)[sp].[moe](A)p.[moe](T)p.[moe](A)[sp].[moe](T)}$$$$ (last 3' nucleoside missing)” had a 3 h FOB score of 6 score 0-7. Consider “RNA1{[moe](A)[sp].[moe](G)p.[moe](G)p.[moe](T)p.[moe]([m5C])p.d(A)[sp].d(A)[sp].d([m5C])[sp].d([m5C])[sp].d(A)[sp].d(A)[sp].d(T)[sp].d(T)[sp].d(T)[sp].d(G)[sp].[moe]([m5C])p.[moe](T)p.[moe](A)[sp].[moe](T)}$$$$ (last 3' nucleoside missing)”, for which the 3 h FOB score came to 5.3 score 0-7. With “RNA1{[moe](A)[sp].[moe](T)p.[moe](T)p.[moe](G)p.[moe](T)p.d([m5C])[sp].d([m5C])[sp].d(T)[sp].d([m5C])[sp].d([m5C])[sp].d(T)[sp].d(G)[sp].d(G)[sp].d(T)[sp].d(A)[sp].[moe](A)p.[moe]([m5C])p.[moe]([m5C])[sp].[moe](A)}$$$$ (last 3' nucleoside missing)”, the 3 h FOB score came out at 1.2 score 0-7. To “RNA1{[moe](G)[sp].[moe](A)p.[moe](G)p.[moe]([m5C])p.[moe](A)p.d(T)[sp].d(T)[sp].d(G)[sp].d(G)[sp].d([m5C])[sp].d(T)[sp].d(T)[sp].d([m5C])[sp].d(A)[sp].d(T)[sp].[moe](A)p.[moe](T)p.[moe](T)[sp].[moe](T)}$$$$ (last 3' nucleoside missing)” belongs 1 score 0-7; to “RNA1{[moe](G)[sp].[moe]([m5C])p.[moe]([m5C])p.[moe](T)p.[moe](T)p.d(T)[sp].d([m5C])[sp].d(T)[sp].d(A)[sp].d(T)[sp].d(T)[sp].d(T)[sp].d([m5C])[sp].d(A)[sp].d(G)[sp].[moe](A)p.[moe]([m5C])p.[moe]([m5C])[sp].[moe](G)}$$$$ (last 3' nucleoside missing)”, 1 score 0-7. Substance “RNA1{[moe](G)[sp].[moe](T)p.[moe](A)p.[moe](A)p.[moe](T)p.d(G)[sp].d(A)[sp].d(T)[sp].d(T)[sp].d(T)[sp].d(G)[sp].d([m5C])[sp].d([m5C])[sp].d([m5C])[sp].d(T)[sp].[moe]([m5C])p.[moe]([m5C])p.[moe](T)[sp].[moe](A)}$$$$ (last 3' nucleoside missing)” displayed a 3 h FOB score of 6 score 0-7.

“RNA1{[moe]([m5C])[sp].[moe](A)p.[moe](T)p.[moe](A)p.[moe](T)p.d(A)[sp].d([m5C])[sp].d(T)[sp].d(A)[sp].d(A)[sp].d(A)[sp].d(T)[sp].d(G)[sp].d(T)[sp].d(T)[sp].[moe](G)p.[moe]([m5C])p.[moe]([m5C])[sp].[moe](G)}$$$$ (last 3' nucleoside missing)”: the 3 h FOB score came out at 1 score 0-7. For “RNA1{[moe](G)[sp].[moe]([m5C])p.[moe]([m5C])p.[moe](A)[sp].d(G)[sp].d(G)[sp].d(T)[sp].d(G)[sp].d(T)[sp].d([m5C])[sp].d(T)[sp].d(T)[sp].[moe](A)p.[moe](T)p.[moe](A)p.[moe](T)[sp].[moe]([m5C])}$$$$ (last 3' nucleoside missing)”, the 3 h FOB score is 1 score 0-7. On to “RNA1{[moe](G)[sp].[moe](G)p.[moe](T)p.[moe](T)p.[moe](A)p.d(G)[sp].d(G)[sp].d(G)[sp].d([m5C])[sp].d(T)[sp].d(A)[sp].d(T)[sp].d(G)[sp].d(T)[sp].d(T)[sp].[moe](A)p.[moe](T)p.[moe](G)[sp].[moe](T)}$$$$ (last 3' nucleoside missing)”, for which the 3 h FOB score worked out at 6 score 0-7.

“RNA1{[moe](G)[sp].[moe](G)p.[moe](G)p.[moe]([m5C])p.[moe](A)p.d(G)[sp].d([m5C])[sp].d(A)[sp].d(A)[sp].d([m5C])[sp].d(A)[sp].d(G)[sp].d([m5C])[sp].d(T)[sp].d([m5C])[sp].[moe](T)p.[moe](T)p.[moe](G)[sp].[moe](A)}$$$$ (last 3' nucleoside missing)” registered a 3 h FOB score of 7 score 0-7. The substance “RNA1{[moe]([m5C])[sp].[moe](G)p.[moe](T)p.[moe](G)[sp].d(A)[sp].d(G)[sp].d([m5C])[sp].d(T)[sp].d(A)[sp].d(T)[sp].d([m5C])[sp].d(T)[sp].[moe](G)p.[moe](T)p.[moe](A)p.[moe]([m5C])[sp].[moe](A)}$$$$ (last 3' nucleoside missing)” came in with a 3 h FOB score of 1 score 0-7.

Consider “RNA1{[moe](T)[sp].[moe](G)p.[moe](T)p.[moe](G)p.[moe](G)p.d(G)[sp].d([m5C])[sp].d([m5C])[sp].d(T)[sp].d([m5C])[sp].d(T)[sp].d(A)[sp].d(T)[sp].d(T)[sp].d(A)[sp].[moe](A)p.[moe](G)p.[moe](A)[sp].[moe](T)}$$$$ (last 3' nucleoside missing)”, for which the 3 h FOB score is 1 score 0-7. As for “RNA1{[moe](T)[sp].[moe](G)p.[moe](T)p.[moe](G)p.[moe]([m5C])p.d(A)[sp].d(T)[sp].d(A)[sp].d([m5C])[sp].d([m5C])[sp].d([m5C])[sp].d(A)[sp].d(G)[sp].d(G)[sp].d(G)[sp].[moe](T)p.[moe](A)p.[moe](G)[sp].[moe](G)}$$$$ (last 3' nucleoside missing)”, the 3 h FOB score was determined as 3 score 0-7. The substance “RNA1{[moe](T)[sp].[moe]([m5C])p.[moe](A)p.[moe](G)p.[moe](T)p.d(T)[sp].d(A)[sp].d(G)[sp].d(G)[sp].d(T)[sp].d(T)[sp].d(A)[sp].d(G)[sp].d(T)[sp].d(G)[sp].[moe]([m5C])p.[moe](A)p.[moe]([m5C])[sp].[moe](A)}$$$$ (last 3' nucleoside missing)” had a 3 h FOB score of 5 score 0-7. The value for “RNA1{[moe](G)[sp].[moe](G)p.[moe](T)p.[moe]([m5C])p.d(A)[sp].d(A)[sp].d([m5C])[sp].d([m5C])[sp].d(A)[sp].d(A)[sp].d(T)[sp].d(T)[sp].d(T)[sp].d(G)[sp].[moe]([m5C])p.[moe](T)p.[moe](A)p.[moe](T)[sp].[moe](T)}$$$$ (last 3' nucleoside missing)” was 4.7 score 0-7; that for “RNA1{[moe](G)[sp].[moe](G)p.[moe](A)p.[moe](T)p.[moe](G)p.d(G)[sp].d(T)[sp].d(T)[sp].d(G)[sp].d(A)[sp].d([m5C])[sp].d([m5C])[sp].d(T)[sp].d([m5C])[sp].d(A)[sp].[moe](A)p.[moe](A)p.[moe](A)[sp].[moe](T)}$$$$ (last 3' nucleoside missing)” was 3.8 score 0-7. “RNA1{[moe](T)[sp].[moe]([m5C])p.[moe](T)p.[moe](T)p.[moe](A)p.d([m5C])[sp].d(T)[sp].d(G)[sp].d(A)[sp].d(T)[sp].d(T)[sp].d([m5C])[sp].d(A)[sp].d(G)[sp].d([m5C])[sp].[moe]([m5C])p.[moe](A)p.[moe](T)[sp].[moe](T)}$$$$ (last 3' nucleoside missing)” had a 3 h FOB score of 4 score 0-7. To “RNA1{[moe](A)[sp].[moe]([m5C])p.[moe](T)p.[moe](T)p.[moe]([m5C])p.d(T)[sp].d([m5C])[sp].d(A)[sp].d(T)[sp].d(T)[sp].d([m5C])[sp].d(T)[sp].d([m5C])[sp].d(T)[sp].d([m5C])[sp].[moe]([m5C])p.[moe](A)p.[moe]([m5C])[sp].[moe]([m5C])}$$$$ (last 3' nucleoside missing)” belongs 0 score 0-7; to “RNA1{[moe](G)[sp].[moe](A)p.[moe](G)p.[moe]([m5C])p.[moe](T)p.[moe](A)p.d(T)[sp].d([m5C])[sp].d(T)[sp].d(G)[sp].d(T)[sp].d(A)[sp].d([m5C])[sp].d(A)[sp].d(A)[sp].d(A)[sp].[moe](A)p.[moe](T)[sp].[moe](G)}$$$$ (last 3' nucleoside missing)”, 5.2 score 0-7; to “RNA1{[moe](G)[sp].[moe](T)p.[moe](T)p.[moe](T)p.[moe](T)p.d([m5C])[sp].d(G)[sp].d([m5C])[sp].d([m5C])[sp].d([m5C])[sp].d(G)[sp].d(T)[sp].d(T)[sp].d(A)[sp].d([m5C])[sp].[moe]([m5C])p.[moe](T)p.[moe]([m5C])[sp].[moe](A)}$$$$ (last 3' nucleoside missing)”, 5.3 score 0-7. Consider “RNA1{[moe]([m5C])[sp].[moe](T)p.[moe](T)p.[moe](G)p.[moe](A)p.d(T)[sp].d(G)[sp].d(G)[sp].d([m5C])[sp].d(T)[sp].d(G)[sp].d(T)[sp].d(A)[sp].d(G)[sp].d([m5C])[sp].[moe](T)p.[moe](T)p.[moe](G)[sp].[moe](G)}$$$$ (last 3' nucleoside missing)”, for which the 3 h FOB score stood at 5 score 0-7. For “RNA1{[moe](G)[sp].[moe](G)p.[moe](G)p.[moe](A)p.[moe](T)p.d(T)[sp].d(T)[sp].d(A)[sp].d([m5C])[sp].d([m5C])[sp].d([m5C])[sp].d(A)[sp].d(T)[sp].d(T)[sp].d(G)[sp].[moe]([m5C])p.[moe](A)p.[moe](A)[sp].[moe](G)}$$$$ (last 3' nucleoside missing)”, the 3 h FOB score is 1 score 0-7. “RNA1{[moe](A)[sp].[moe](G)p.[moe](G)p.[moe](T)p.[moe]([m5C])p.[moe](A)p.d(A)[sp].d([m5C])[sp].d([m5C])[sp].d(A)[sp].d(A)[sp].d(T)[sp].d(T)[sp].d(T)[sp].d(G)[sp].d([m5C])[sp].[moe](T)p.[moe](A)[sp].[moe](T)}$$$$ (last 3' nucleoside missing)” showed a 3 h FOB score of 5.3 score 0-7.
